The values below are quoted from earlier work in patent US20260272874A1, “COMPOUNDS FOR THE TREATMENT AND PREVENTION OF VIRAL DISEASES” (priority 2023, published 2026).

For data set [1], the system named is RNA helicase enzyme eIF4A. The conditions noted are these: previous studies.
The subject of data set [2] is corona viruses, SARS and MERS virus.

For the compound 4E2RCat, the coronavirus replication result with coronavirus was “capable of blocking coronavirus replication”.

In the case of Silvesterol, the “inhibition of RNA helicase enzyme eIF4A” value in data set [1] is “potent and selective inhibitor”. Moreover, the antiviral activity entry in data set [2] is “broad spectrum antiviral activity”.

Regarding `COc1cc2c(c(OC)n1)[C@]1(O)[C@H](O)[C@H](CN(C)C)[C@@H](c3ccccc3)[C@]1(c1ccc(C#N)cc1)O2` [Zotatifin], in the data set on SARS-CoV-2, the “antiviral activity against SARS-CoV-2” value is reported as “shows antiviral activity”.
